From ChEMBL document CHEMBL1201862, “PubChem BioAssay data set” (2004)
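1) Cells in 96-well plates. 2) Compound, 48 h, 5 concentrations. 3) Linear interpolation between surrounding doses. 4) Unreached endpoint = highest concentration. At the GI50, growth is halved.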 Active and inactive are the calls of the source. No stated cut-off is given here; in the data, active = GI50 up to about 1.1 µM and inactive = higher.

What was measured:
Assay in all cases: NCI tumour cell line growth inhibition, 48 h
[1] = system: MCF7
[2] = system: BT-549
[3] = system: SNB-78
[4] = system: DMS-273
[5] = system: XF498
[6] = system: HOP-18
[7] = system: KM-20L2
[8] = system: DMS-114

SMILES | GI50 [1] | GI50 [2] | GI50 [3] | GI50 [4] | GI50 [5] | GI50 [6] | GI50 [7] | GI50 [8]
C=C1[C@H](OC(=O)C(C)C)[C@]23CC4(O)[C@@H]5[C@@]6(C)CCC[C@]57C([C@@H]2C[C@@]1(O)[C@H](O)[C@@H]73)N4C6 | > 100 µM (inactive) | > 100 µM (inactive) |  |  |  |  |  | 
CCOC(=O)/C1=C(\C)N(c2ccc(C)cc2)C(=O)c2ccccc2C(=O)c2c(O)ccc(O)c21 | 15.2 µM (inactive) | 27.7 µM (inactive) |  |  |  |  |  | 
Cc1c2ccccc2c(C)c2c3c(ccc12)C(=O)C=CC3=O |  |  | 16.3 µM (inactive) | 64.7 µM (inactive) | 17 µM (inactive) | 23.8 µM (inactive) | 41.9 µM (inactive) | 11.8 µM (inactive)
COC(=O)c1ccc(/C=N/c2cc(C)nn2-c2ccccc2)cc1 | 15.1 µM (inactive) | 34.9 µM (inactive) |  |  |  |  |  | 
Cc1nc2c(O)nc3ccccc3c2o1 | > 100 µM (inactive) | > 100 µM (inactive) |  |  |  |  |  | 
N#CCCN(CCC#N)c1ccc(C(=N/c2ccc(Cl)cc2)/N=N/c2ccccc2)cc1 | > 100 µM (inactive) | 17.5 µM (inactive) |  |  |  |  |  | 
CCN(CC)CC[n+]1ccc2c(C)c3[nH]c4ccccc4c3c(C)c2c1 | 0.522 µM (active) | 1.3 µM (inactive) |  | 0.338 µM (active) |  |  |  | 
Cn1c(=O)nc2n(-c3cc(Cl)ccc3Cl)c3ccccc3nc-2c1=O |  |  | 13.5 µM (inactive) | 3.67 µM (inactive) | 7.76 µM (inactive) | 12.4 µM (inactive) | 2.93 µM (inactive) | 2.11 µM (inactive)
Cc1ccc(S(=O)(=O)NN=C2C(C)(C)CC2(C)C)cc1 | > 100 µM (inactive) |  |  |  |  |  |  | 
C=CCn1c(=O)ccn(/C(=C/C(=O)OCC)C(=O)OCC)c1=O | 3.94 µM (inactive) | 15.7 µM (inactive) |  |  |  |  |  | 
Cc1ccc2c(CC(=O)O)cc(=O)oc2c1 |  |  |  | 37.2 µM (inactive) | 2.86 µM (inactive) | > 100 µM (inactive) | > 100 µM (inactive) | > 100 µM (inactive)
BrC(Br)=C1C(=C(Br)Br)C(Br)C1Br (configuration not stated) | 0.193 µM (active) | 0.327 µM (active) | 1.32 µM (inactive) | 0.126 µM (active) |  | 2.91 µM (inactive) | 1.38 µM (inactive) | 0.256 µM (active)
CC(=O)NNc1nc(C)c(C(/C=C/c2ccc([N+](=O)[O-])cc2)=N/NC(N)=S)s1 | > 100 µM (inactive) | > 100 µM (inactive) |  |  |  |  |  | 
Cc1ccc(C)c(NC2=NC(=O)C(CC(=O)Nc3ccc(Cl)cc3Cl)S2)c1 (configuration not stated) |  |  |  | 98.6 µM (inactive) | 32.7 µM (inactive) | > 100 µM (inactive) | > 100 µM (inactive) | 42.6 µM (inactive)
C/C=C/[C@H]1O[C@@](OC)([C@@H](C)[C@H](O)[C@H](C)[C@H]2OC(=O)/C(OC)=C/C(C)=C/[C@@H](C)[C@@H](O)[C@@H](C)[C@@H](O)[C@H](C)C/C(C)=C/C=C/[C@@H]2OC)CC(OC2CC(O)C(OC(N)=O)C(C)O2)[C@@H]1C (some centres not stated) | < 0.01 µM (active) | < 0.01 µM (active) |  |  |  |  |  | 
Cc1cccc(/C=N/NC(=S)NC2CCCCC2)n1 | 11.4 µM (inactive) | 31 µM (inactive) |  |  |  |  |  | 
O=C1CC2(CCNCC2)C(=O)N1N1CCOCC1 | > 100 µM (inactive) | > 100 µM (inactive) |  |  |  |  |  | 
CCOC(=O)Nn1c(CC#N)nnc1Cc1ccccc1 | > 100 µM (inactive) | > 100 µM (inactive) |  |  |  |  |  | 
CC(=O)Oc1c2oc3cc(O)c(O)cc3c2c(OC(C)=O)c2oc3cc(O)c(O)cc3c12 [POLYOZELLIN] |  | 17.1 µM (inactive) |  |  |  |  |  | 
CC1(C)CC[C@]2(C(=O)O)CC[C@]3(C)[C@H](C(=O)C=C4[C@@]5(C)C=C(C#N)C(=O)C(C)(C)[C@@H]5CC[C@]43C)[C@@H]2C1 [BARDOXOLONE] | 0.265 µM (active) | 0.731 µM (active) |  |  |  |  |  | 
CCOC(=O)c1c(N2CCCC2)[nH]c(=O)c(C(c2c(O)c(C(=O)OCC)c(N3CCCC3)[nH]c2=O)C(C)C)c1O | > 100 µM (inactive) | 32.4 µM (inactive) |  |  |  |  |  | 
C/C(=C/CC[C@](C)(OC1OC(CO)C(O)C(O)C1O)[C@H]1CC[C@]2(C)[C@@H]1CC[C@@H]1[C@@]3(C)CC[C@H](O)C(C)(C)[C@@H]3C[C@H](O)[C@]12C)CO (some centres not stated) | 34.8 µM (inactive) | 12.5 µM (inactive) |  |  |  |  |  | 
CC(=O)N(C)c1ccc2ncccc2c1[N+](=O)[O-] |  |  | > 100 µM (inactive) | > 100 µM (inactive) | > 100 µM (inactive) | > 100 µM (inactive) | > 100 µM (inactive) | > 100 µM (inactive)
CCOC(=O)c1nc2ccc(Cl)cc2c2c1Cc1ccccc1-2 |  |  | > 100 µM (inactive) | > 100 µM (inactive) | > 100 µM (inactive) | > 100 µM (inactive) | > 100 µM (inactive) | 
CC(C)(C)c1ccc(O)c(CN(Cc2c(O)ccc3ccccc23)C2CCCCC2)c1 | 17.1 µM (inactive) | 19.6 µM (inactive) |  |  |  |  |  | 
CC1=C(C)CC2C(=O)N(c3cc(C(C)(C)C)ccc3C(C)(C)C)C(=O)C2C1 (configuration not stated) | 0.776 µM (active) | 24.7 µM (inactive) |  |  |  |  |  | 
N#CC1CCCC2SC(F)(F)C(F)(F)C12 (configuration not stated) | > 100 µM (inactive) | > 100 µM (inactive) |  |  |  |  |  | 
Cc1ccc(S(=O)(=O)CC2CCCn3c2c(C#N)c2ccccc23)cc1 (configuration not stated) | > 100 µM (inactive) | > 100 µM (inactive) |  |  |  |  |  | 
CN(CCN(C)C(=S)NN)C(=S)NN |  | > 100 µM (inactive) |  |  |  |  |  | 
